Where a name gives a salt, the structure may show the parent alone. Marks after values point to notes of the source that are not given here. One block for each compound: values may come before it.
Test system: male rats
Test: Plasma metabolite profiling (GC-MS, LC-MS, SPE-LC-MS) in male rats dosed once daily over 28 days (OECD 407)
Assay type: in vivo, rat
Details: for Alanine, ratio versus control / Androstenedione, ratio versus control / Cholesterol, ratio versus control / Glycine, ratio versus control / Heptadecanoic acid (C17:0), ratio versus control / Testosterone, ratio versus control / Threonine, ratio versus control / Uric acid, ratio versus control / alpha-Tocopherol, ratio versus control: male rats, plasma; for Testosterone: Table 11a
Protocol: Each dose group in the studies consisted of five rats per sex. Additional groups of each 5 male and female animals served as controls. […] All animals of the animal population were kept under the same constant temperature (20-24±3° C.) and the same constant humidity (30-70%). The animals of the animal population were fed ad libitum. The food to be used was essentially free of chemical or microbial contaminants. Drinking water was also offered ad libitum. Accordingly, the water was free of chemical and microbial contaminants as laid down in the European Drinking Water Directive 98/83/EG. The illumination period was 12 hours light followed by 12 hours darkness (12 hours light, from 6:00 to 18:00, and 12 hours darkness, from 18:00 to 6:00). […] The test substances (compounds) in the Tables 1 to 17 below were dosed and administered as described in the Table 18.
In the morning of day 7, 14, and 28, blood was taken from the retroorbital venous plexus from fasted anaesthetized animals. From each animal, 1 ml of blood was collected with EDTA as anticoagulant. The samples were centrifuged for generation of plasma. All plasma samples were covered with a N2 atmosphere and then stored at −80° C. until analysis.
For mass spectrometry-based metabolite profiling analyses plasma samples were extracted and a polar and a non-polar (lipid) fraction was obtained. For GC-MS analysis, the non-polar fraction was treated with methanol under acidic conditions to yield the fatty acid methyl esters. Both fractions were further derivatised with O-methyl-hydroxyamine hydrochloride and pyridine to convert Oxogroups to O-methyloximes and subsequently with a silylating agent before analysis. In LC-MS analysis, both fractions were reconstituted in appropriate solvent mixtures. HPLC was performed by gradient elution on reversed phase separation columns. Mass spectrometric detection which allows target and high sensitivity MRM (Multiple Reaction Monitoring) profiling in parallel to a full screen analysis was applied as described in WO2003073464.
Steroids and their metabolites were measured by online SPE-LC-MS (Solid phase extraction-LC-MS).
Following comprehensive analytical validation steps, the data for each analyte were normalized against data from pool samples. These samples were run in parallel through the whole process to account for process variability. The significance of treatment group values specific for sex, treatmentduration and metabolite was determined by comparing means of the treated groups to the means of the respective untreated control groups using WELCH-test and quantified with treatment ratios versus control and p-values.
The identification of the most important biomarkers per toxicity pattern was done by a ranking of the analytes in the tables below. Therefore the metabolic changes in reference treatments of a given pattern (shown in the table) were compared with changes of the same metabolite in other unrelated treatments. […] The maximum absolute value of the respective TVALUE was taken to indicate the most important metabolite for the pattern.

SMILES: O=P1(NCCCl)OCCCN1CCCl (centres unmarked) [Ifosfamide]
- Alanine, ratio versus control (high dose, day 7): 1.07
- Androstenedione, ratio versus control (high dose, day 7): 3.68
- Cholesterol, ratio versus control (high dose, day 7): 1.12
- Glycine, ratio versus control (high dose, day 7): 1.33
- Heptadecanoic acid (C17:0), ratio versus control (high dose, day 7): 0.94
- Testosterone, ratio versus control (high dose, day 7): 2.35
- Threonine, ratio versus control (high dose, day 7): 1.21
- Uric acid, ratio versus control (high dose, day 7): 0.57
- alpha-Tocopherol, ratio versus control (high dose, day 7): 0.99
- Androstenedione, ratio versus control (high dose, day 14): 0.21 *
- Testosterone, ratio versus control (high dose, day 14): 0.21 *
- Alanine, ratio versus control (high dose, day 28): 0.76
- Androstenedione, ratio versus control (high dose, day 28): 0.24 *
- Cholesterol, ratio versus control (high dose, day 28): 1.13
- Glycine, ratio versus control (high dose, day 28): 1.28
- Heptadecanoic acid (C17:0), ratio versus control (high dose, day 28): 1.08
- Testosterone, ratio versus control (high dose, day 28): 0.22 *
- Threonine, ratio versus control (high dose, day 28): 0.88
- Uric acid, ratio versus control (high dose, day 28): 0.65
- alpha-Tocopherol, ratio versus control (high dose, day 28): 0.95

- 3-O-Methylsphingosine (d18:1) (m7, high dose, Table 10a): 1.33
- 5-O-Methylsphingosine (d18:1) (m7, high dose, Table 10a): 1.43
- Cysteine (m7, high dose, Table 10a): 1.81 *
- Lignoceric acid (C24:0) (m7, high dose, Table 10a): 1.33
- Nervonic acid (C24:cis[15]1) (m7, high dose, Table 10a): 1.37
- Oleic acid (C18:cis[9]1) (m7, high dose, Table 10a): 0.83
- Stearic acid (C18:0) (m7, high dose, Table 10a): 1.21
- alpha-Tocopherol (m7, high dose, Table 10a): 1.37
- threo-Sphingosine (d18:1) (m7, high dose, Table 10a): 1.2
- Oleic acid (C18:cis[9]1) (m7, high dose, Table 10b): 0.83^
- Phosphatidylcholine (C16:0, C16:0) (m7, high dose, Table 10b): 0.99^
- Thyroxine (T4) (m7, high dose, Table 10b): 0.42 *
- trans-4-Hydroxyproline (m7, high dose, Table 10b): 0.87 *
- 3-O-Methylsphingosine (d18:1) (m14, high dose, Table 10a): 1.43^
- 5-O-Methylsphingosine (d18:1) (m14, high dose, Table 10a): 1.67 *
- Cysteine (m14, high dose, Table 10a): 2.03 *
- Oleic acid (C18:cis[9]1) (m14, high dose, Table 10a): 0.88^
- Stearic acid (C18:0) (m14, high dose, Table 10a): 1.2
- alpha-Tocopherol (m14, high dose, Table 10a): 1.64 *
- threo-Sphingosine (d18:1) (m14, high dose, Table 10a): 1.45 *
- Oleic acid (C18:cis[9]1) (m14, high dose, Table 10b): 0.88 *
- Thyroxine (T4) (m14, high dose, Table 10b): 0.59^
- trans-4-Hydroxyproline (m14, high dose, Table 10b): 0.83 *
- 3-O-Methylsphingosine (d18:1) (m28, high dose, Table 10a): 2.23 *
- 5-O-Methylsphingosine (d18:1) (m28, high dose, Table 10a): 2.39 *
- Lignoceric acid (C24:0) (m28, high dose, Table 10a): 1.79 *
- Nervonic acid (C24:cis[15]1) (m28, high dose, Table 10a): 1.57 *
- Oleic acid (C18:cis[9]1) (m28, high dose, Table 10a): 0.98^
- Stearic acid (C18:0) (m28, high dose, Table 10a): 1.42 *
- alpha-Tocopherol (m28, high dose, Table 10a): 1.74 *
- threo-Sphingosine (d18:1) (m28, high dose, Table 10a): 2.2 *
- Oleic acid (C18:cis[9]1) (m28, high dose, Table 10b): 0.98
- Phosphatidylcholine (C16:0, C16:0) (m28, high dose, Table 10b): 0.99
- Thyroxine (T4) (m28, high dose, Table 10b): 0.72
- trans-4-Hydroxyproline (m28, high dose, Table 10b): 0.72 *
- Cysteine (rat, in vivo): 1.37 *
- Lignoceric acid (C24:0) (rat, in vivo): 1.35^
- Nervonic acid (C24:cis[15]1) (rat, in vivo): 1.68^
- Phosphatidylcholine (C16:0, C16:0) (rat, in vivo): 1.03^
SMILES: CNCCC(Oc1ccc(C(F)(F)F)cc1)c1ccccc1 (centres unmarked) [Fluoxetine hydrochloride]

SMILES: C=CC1(C)OC(=O)N(c2cc(Cl)cc(Cl)c2)C1=O (centres unmarked) [Vinclozolin]
- Testosterone (m7, high dose): 1.41^
- Testosterone (m14, high dose): 2.44 *
- Testosterone (m28, high dose): 1.09^

SMILES: CCNC(=O)[C@@H]1CCCN1C(=O)[C@H](CCCNC(=N)N)NC(=O)[C@H](CC(C)C)NC(=O)[C@@H](COC(C)(C)C)NC(=O)[C@H](Cc1ccc(O)cc1)NC(=O)[C@H](CO)NC(=O)[C@H](Cc1c[nH]c2ccccc12)NC(=O)[C@H](Cc1cnc[nH]1)NC(=O)[C@@H]1CCC(=O)N1 [Buserelin acetate a.c., Buserelin acetate]
- Alanine, ratio versus control (high dose, day 7): 0.67 *
- Androstenedione, ratio versus control (high dose, day 7): 0.17 *
- Cholesterol, ratio versus control (high dose, day 7): 0.9 *
- Glycine, ratio versus control (high dose, day 7): 0.83 *
- Heptadecanoic acid (C17:0), ratio versus control (high dose, day 7): 0.81 *
- Testosterone, ratio versus control (high dose, day 7): 0.11 *
- Threonine, ratio versus control (high dose, day 7): 1.01 *
- Uric acid, ratio versus control (high dose, day 7): 0.59 *
- alpha-Tocopherol, ratio versus control (high dose, day 7): 0.88 *
- Alanine, ratio versus control (high dose, day 14): 0.74 *
- Androstenedione, ratio versus control (high dose, day 14): 0.5 *
- Cholesterol, ratio versus control (high dose, day 14): 0.84 *
- Glycine, ratio versus control (high dose, day 14): 0.91^
- Heptadecanoic acid (C17:0), ratio versus control (high dose, day 14): 0.94 *
- Testosterone, ratio versus control (high dose, day 14): 0.19 *
- Threonine, ratio versus control (high dose, day 14): 0.92 *
- Uric acid, ratio versus control (high dose, day 14): 076 *
- alpha-Tocopherol, ratio versus control (high dose, day 14): 0.93 *
- Alanine, ratio versus control (high dose, day 28): 0.78^
- Androstenedione, ratio versus control (high dose, day 28): 0.35 *
- Cholesterol, ratio versus control (high dose, day 28): 0.91^
- Glycine, ratio versus control (high dose, day 28): 0.91 *
- Heptadecanoic acid (C17:0), ratio versus control (high dose, day 28): 0.91 *
- Testosterone, ratio versus control (high dose, day 28): 0.08 *
- Threonine, ratio versus control (high dose, day 28): 1.01^
- Uric acid, ratio versus control (high dose, day 28): 0.85 *
- alpha-Tocopherol, ratio versus control (high dose, day 28): 1.03^

From patent publication US20150010928A1, “MEANS AND METHODS FOR ASSESSING AN ENDOCRINE DISEASE OR DISORDER” (priority 2012, published 2015)
